Reference: patent US11224224B2, “Thiobenzoimidazole as fungicides” (REDAG CROP PROTECTION LTD, priority 2017, dated 2022)
Values after ≈ are worked out from the molar mass of the structure shown.

What was measured:
Type in all cases: cell-based
[1] = system: Pythium ultimum; test: Amended agar assay (PDA), colony growth; parameters: key to % control Pythium ultimum 20 ppm: D: no control detected at this concentration; C: up to 50% control; B: from 50 to 99% control; A: a control of greater than 99%, i.e. no detectable colony growth; conditions: for % control Pythium ultimum 20 ppm / inhibition of growth at 20 ppm: 20 ppm in amended PDA, 18° C., reduction in colony growth vs control plate; for EC50 / inhibition of growth at 20 ppm: Globisporangium ultimum; for EC50: amended agar, 5-fold dilutions
Protocol: (§1) Testing was carried out on potato dextrose agar (PDA) amended with each compound at a test concentration of 20 ppm. Amended agar was poured into three replicate 9 cm petri dishes. Each replicate dish was inoculated in the centre with a 5 mm agar plug taken from the leading edge of a culture aged between 2 and 7 days old; the age of the culture was dependant on the growth rate of the pathogen being tested. The test pathogens were Pythium ultimum and Phytophthora cinnamomi. Plates were incubated at 18° C. and the diameter of each colony measured before growth on the fastest growing plate reached the plate edge. This varied between 2 and 7 days depending on the growth rate of test pathogens. The % reduction in colony growth compared to the control plate was calculated for each pathogen. The results are provided in Table 1, in which D represents no control detected at this concentration; C represents up to 50% control; B from 50 to 99% control; and A represents a control of greater than 99%, i.e. no detectable colony growth.
(§2) Alternatively, or in addition, the same assay was conducted at descending test concentrations with 5-fold dilutions typically down to 0.032 ppm though sometimes as low as 0.00026 ppm, and an EC50 (the concentration at which 50% control would be achieved) was determined. The results are provided in Table 1 in which G represents an EC50 above 20 ppm, F represents an EC50 of 1-20 ppm and E represents and EC50 less than 1 ppm.

[2] = system: Phytophthora cinnamomi; test: Amended agar assay (PDA), colony growth; parameters: key to % control Phytophthora spp. 20 ppm: D: no control detected at this concentration; C: up to 50% control; B: from 50 to 99% control; A: a control of greater than 99%, i.e. no detectable colony growth; conditions: for inhibition of growth at 20 ppm / EC50: Phytophthora cinnamomi; for inhibition of growth at 20 ppm / % control Phytophthora spp. 20 ppm: 20 ppm in amended PDA, 18° C., reduction in colony growth vs control plate; for inhibition of growth at 20 ppm: read-out: % control Phytophthora spp. 20 ppm; for EC50: amended agar, 5-fold dilutions (cells without *), read-out: EC50 Phytophthora spp.
Protocol: as §1, §2

[3] = system: oomycete plant pathogens; test: Fungicidal activity testing, overall summary; conditions: summary statement on Table 1
Protocol: The activity of compounds of the invention was assessed by testing against certain oomycete plant pathogens and representative data are presented in Table 1.

[4] = system: Pythium ultimum; test: Amended agar assay (PDA), colony growth; conditions: Globisporangium ultimum; read-out: % control Pythium ultimum 2 ppm

Compound	% control Pythium ultimum 20 ppm [1]	inhibition of growth at 20 ppm [2]	EC50 [1]	% control Phytophthora spp. 20 ppm [2]	EC50 [2]	inhibition of growth at 20 ppm [1]	control over the pathogens tested [3]	inhibition of growth at 2 ppm [4]
Cn1nnnc1-n1c(SCc2cccc(C(=O)O)n2)nc2ccccc21 [Compound 29]	D	< 50%						
Cn1nnnc1-n1c(SCc2cnc(Cl)s2)nc2ccccc21 [Compound 30]	D		> 20 µg/mL	D	> 20 µg/mL			
c1ccc(CSc2nc3ccccc3n2-c2ncon2)nc1 [Compound 31]			> 20 µg/mL		> 20 µg/mL	< 50%		
c1ccc(CSc2nc3ccccc3n2-c2ccccn2)nc1 [Compound 32]	D			D				
O=C(Nc1cccc(CSc2nc3ccccc3n2-c2ccccn2)n1)C(F)(F)Oc1ccccc1 [Compound 33]	D		> 20 µg/mL	D	> 20 µg/mL			
Cn1nnnc1-n1c(SCc2cccc(NC(=O)C(F)(F)Oc3ccccc3)n2)nc2ccccc21 [Example 1, 2,2-Difluoro-N-(6-(((1-(1-methyl-1H-tetrazol-5-yl)-1H-benzo[d]imidazol-2-yl)thio)methyl)pyridin-2-yl)-2-phenoxyacetamide]		> 99%	< 1 µg/mL		< 1 µg/mL	> 99%	good to excellent control	
Cn1nnnc1-n1c(SCc2ccccn2)nc2ccccc21 [Example 2]		50 to 99%	1 to 20 µg/mL (≈ 3.09 to 61.8 µM)		< 1 µg/mL	> 99%	good to excellent control	> 99%
Cn1nnnc1-n1c(SCc2csc(N)n2)nc2ccccc21 [Example 3]		> 99%				> 99%	good to excellent control	
Cc1cccnc1-n1c(SCc2cccc(NCC(F)(F)Oc3ccccc3)n2)nc2ccccc21 [Example 4]			1 to 20 µg/mL (≈ 1.99 to 39.7 µM)		1 to 20 µg/mL (≈ 1.99 to 39.7 µM)			
Cn1nccc1-n1c(SCc2ccccn2)nc2ccccc21 [Example 5]		< 50%				< 50%		
Cc1noc(-n2c(SCc3ccccn3)nc3ccccc32)c1C [Example 6]		50 to 99%				50 to 99%		
Cn1nnnc1-n1c(SCc2ccccn2)nc2ccc(F)cc21 [Example 7]			< 1 µg/mL		< 1 µg/mL		good to excellent control	
Cn1nnnc1-n1c(SCc2cccc(NC(=O)C(F)(F)Oc3ccccc3)n2)nc2ccc(F)cc21 [Example 8]			< 1 µg/mL		< 1 µg/mL		good to excellent control	50 to 99%
Cn1nnnc1-n1c(SCc2cccc(NC(=O)OC(C)(C)C)n2)nc2ccccc21 [Example 9]			< 1 µg/mL		< 1 µg/mL		good to excellent control	
Cc1cccnc1-n1c(SCc2ccccn2)nc2ccccc21 [Example 10]		< 50%				50 to 99%		
CC(=O)Nc1nc(CSc2nc3ccccc3n2-c2nnnn2C)cs1 [Example 11]			< 1 µg/mL		< 1 µg/mL		good to excellent control	
Cn1nnnc1-n1c(SCc2cscn2)nc2ccccc21 [Example 12]			< 1 µg/mL		< 1 µg/mL		good to excellent control	
Cc1cccc(CSc2nc3ccccc3n2-c2nnnn2C)n1 [Example 13]			> 20 µg/mL	D	> 20 µg/mL	< 50%		
Cc1cc(-n2c(SCc3ccccn3)nc3ccccc32)sn1 [Example 14]		< 50%				< 50%		
c1ccc(CSc2nc3ccccc3n2-c2ccon2)nc1 [Example 15]			> 20 µg/mL	D	> 20 µg/mL	< 50%		

Compound	% control Pythium ultimum 20 ppm [1]	inhibition of growth at 20 ppm [2]	EC50 [1]	% control Phytophthora spp. 20 ppm [2]	EC50 [2]	inhibition of growth at 20 ppm [1]	control over the pathogens tested [3]	inhibition of growth at 2 ppm [4]
Cc1nc(CSc2nc3ccccc3n2-c2nnnn2C)cs1 [Example 16]		50 to 99%	1 to 20 µg/mL (≈ 2.91 to 58.2 µM)		1 to 20 µg/mL (≈ 2.91 to 58.2 µM)	> 99%	good to excellent control	
CNc1nc(CSc2nc3ccccc3n2-c2nnnn2C)cs1 [Example 17]		> 99%	< 1 µg/mL		< 1 µg/mL	> 99%	good to excellent control	
COC(=O)c1cccc(CSc2nc3ccccc3n2-c2nnnn2C)n1 [Example 18]				D		< 50%		
Cn1nnnc1-n1c(SCc2cc3ccccc3cn2)nc2ccccc21 [Example 19]		50 to 99%				50 to 99%		
Cc1nccnc1-n1c(SCc2ccccn2)nc2ccccc21 [Example 20]			> 20 µg/mL	D	> 20 µg/mL	< 50%		
Cn1nnnc1-n1c(SCc2ccccn2)nc2c(F)cc(F)cc21 [Example 21]		> 99%	< 1 µg/mL		< 1 µg/mL	> 99%	good to excellent control	
Cn1nnnc1-n1c(SCc2csc(NC(=O)C(F)(F)Oc3ccccc3)n2)nc2ccccc21 [Example 22]			< 1 µg/mL		< 1 µg/mL		good to excellent control	
Cn1nnnc1-n1c(SCc2csc(NC(=O)OC(C)(C)C)n2)nc2ccccc21 [Example 23]			< 1 µg/mL		< 1 µg/mL		good to excellent control	
COC(=O)CSc1nc2ccccc2n1-c1nnnn1C [Example 24]		50 to 99%				< 50%		
Cn1nnnc1-n1c(SCC(=O)N2CCCC2)nc2ccccc21 [Example 25]			< 1 µg/mL		< 1 µg/mL		good to excellent control	50 to 99%
Cn1nnnc1-n1c(SCc2cccc(N)n2)nc2ccccc21 [Example 26, 6-(((1-(1-Methyl-1H-tetrazol-5-yl)-1H-benzo[d]imidazol-2-yl)thio)methyl)pyridin-2-amine]		> 99%				> 99%	good to excellent control	
CC(=O)Nc1cccc(CSc2nc3ccccc3n2-c2nnnn2C)n1 [Example 27, N-(6-(((1-(1-Methyl-1H-tetrazol-5-yl)-1H-benzo[d]imidazol-2-yl)thio)methyl)pyridin-2-yl)acetamide]		50 to 99%				> 99%	good to excellent control	
CCOC(=O)Nc1cccc(CSc2nc3ccccc3n2-c2nnnn2C)n1 [Example 28, Ethyl (6-(((1-(1-methyl-1H-tetrazol-5-yl)-1H-benzo[d]imidazol-2-yl)thio)methyl)pyridin-2-yl)carbamate]			< 1 µg/mL		< 1 µg/mL		good to excellent control	
O=C(Nc1cccc(CSc2nc3ccccc3n2-c2ncncc2Cl)n1)C(F)(F)Oc1ccccc1 [Example 45]			< 1 µg/mL		< 1 µg/mL		good to excellent control	
COC(=O)c1cccc(CSc2nc3ccccc3n2-c2ncccc2C)n1 [Example 46]	D	< 50%						
Cn1ccnc1-n1c(SCc2ccccn2)nc2ccccc21 [Example 49]		50 to 99%	1 to 20 µg/mL (≈ 3.11 to 62.2 µM)		1 to 20 µg/mL (≈ 3.11 to 62.2 µM)	> 99%	good to excellent control	
Cn1ccnc1-n1c(SCc2cccc(NC(=O)C(F)(F)Oc3ccccc3)n2)nc2ccccc21 [Example 50]			< 1 µg/mL		< 1 µg/mL		good to excellent control	
Cn1nnnc1-n1c(SCc2ccccn2)nc2ccc(Br)cc21 [Example 52]		50 to 99%	1 to 20 µg/mL (≈ 2.49 to 49.7 µM)		< 1 µg/mL	50 to 99%	good to excellent control	
Cn1nnnc1-n1c(SCc2csc(NC(=O)OC(C)(C)C)n2)nc2ccc(Br)cc21 [Example 53]			< 1 µg/mL		< 1 µg/mL		good to excellent control	
